In test [1] the target is LeuT Leu 400 Ala mutant (Aquifex aeolicus, UniProt O67854, L400A). In words: Scintillation proximity assay, [3H]Leu binding to Leu 400 Ala mutant. Particulars: SPA, 400 nM protein, Fig 2b; listed as [^3H]Leu. On the technique in general: SPA uses beads or plates that emit light when radiolabelled molecules are held near them.
Test [2] deals with T1, Tyr 108 Phe–LeuT^K (Aquifex aeolicus, UniProt O67854, K288A/Y108F). Kind of test: Isothermal titration calorimetry, Leu binding to Tyr 108 Phe mutant. Particulars: ITC, 25 °C, pH 7.0.
Test [3] addresses LeuT Leu 400 Cys mutant (Aquifex aeolicus, UniProt O67854, L400C). Kind of test: Scintillation proximity assay, [3H]Leu binding to Leu 400 Cys mutant. Particulars: SPA, 400 nM protein, Fig 2b; listed as [^3H]Leu.
The target in test [4] is T2, wild-type LeuT (Aquifex aeolicus, UniProt O67854). In words: Equilibrium dialysis, [3H]Leu binding to wild-type LeuT. Particulars: single-site fit, 23 °C, 6 h, listed as [^3H]Leu. (In equilibrium dialysis free small molecules cross a membrane that holds back macromolecules.)
The target in test [5] is T2, wild-type LeuT. In words: Scintillation proximity assay, [3H]Leu binding to wild-type LeuT. Particulars: SPA.
Test [6] addresses T1, Tyr 108 Phe–LeuT^K. In words: Equilibrium dialysis, [3H]Leu binding to Tyr 108 Phe mutant. Conditions: single-site fit, 23 °C, 6 h, listed as [^3H]Leu.
In test [7] the target is T2, wild-type LeuT. Kind of test: Isothermal titration calorimetry, Leu binding to wild-type LeuT. Conditions: ITC, 25 °C, pH 7.0. (In general: ITC needs no label: the signal is the heat of the interaction.)
Test [8] has as its target LeuT^K (Lys 288 Ala LeuT) (Aquifex aeolicus, UniProt O67854, K288A).
Test [9] deals with LeuT. Particulars: cited from earlier work.
Where [10] appears, read: two-site, ordered-binding model fit, parameters not well fitted.

Turning to `CC(C)C[C@H](N)C(=O)O` [Leu, L-leucine], the Stoichiometry entry in test [1] is “about 0.8 mol/mol LeuT”; in [3] it was “about 0.8 mol/mol LeuT”; in [4] it was 0.73±0.03 mol/mol LeuT; in test [5] (400 nM LeuT (~20 Kd), 25–1,200 nM [3H]Leu, Fig 2b), “about 0.8 mol/mol LeuT”; in test [6] it was 0.72±0.02 mol/mol LeuT. Moreover, the ΔH of binding was -1.92 ± 0.03 kcal/mol in test [2] and -3.93 ± 0.02 kcal/mol in test [7]. Moreover, the “Stoichiometry N” value in [2] (single-site model) came out at 0.79±0.01 mol/mol LeuT. Moreover, in [7], the “−TΔS of binding” value is -6.01 ± 0.13 kcal/mol. The “Stoichiometry N (substrate-to-LeuT)” value in [7] (single-site model) is reported as 0.70±0.01 mol/mol LeuT.
The Km is the substrate concentration at which the rate is half of its maximum. Turning to `C[C@H](N)C(=O)O` [Ala, alanine], the Km in [8] (read-out: Km (Michaelis constant), pH 5, 200 mM inward Na+ gradient, 27 °C, no valinomycin) worked out at 0.79 ± 0.06 µM. Further, the “Hill slope nH” value in [8] (steady-state data fitted to the Hill equation) is 0.96±0.03. In addition, in test [8] (two-site, ordered-binding model fit), the Vmax is 10,965±308 pmol min^−1 mg^−1. In addition, in test [8] (setting [10]), the “apparent dissociation constant KS” value came to 6.8 ± 22 nM and the “dissociation coefficient α” value worked out at 114±360.
Regarding `CN(C)CCCN1c2ccccc2CCc2ccc(Cl)cc21` [clomipramine], in test [9], the “Mode of inhibition of LeuT transport” value is given as “non-competitive inhibitor”. In addition, the “Effect of clomipramine on binding of Leu to wild-type LeuT” value in [5] (10 nM LeuT, 1 mM clomipramine) is on record as “no change”.

The values above are taken from paper PMC3079577 (Nature, 2010).
